We go through two compounds from ChEMBL document CHEMBL4321812, “Structure-based rational design of staurosporine-based fluorescent probe with broad-ranging kinase affinity for kinase panel application” (Bioorg Med Chem Lett, 2019).

One experiment concerns the target TGF-beta receptor type-2 (Homo sapiens, UniProt P37173). The experiment in a line: Binding affinity to recombinant N-terminal His-FLAG-GST-tagged TGFBR2 (unknown origin) (194 to 567 residues) expressed in baculovirus infected Sf9 insect cells incubated for 1 hr by TR-FRET assay. Background: TR-FRET usually uses a lanthanide donor and a delayed reading to cut background.

Another experiment concerns the target LIM domain kinase 1 (Homo sapiens, UniProt P53667). The experiment in a line: Binding affinity to truncated human N-terminal GST-tagged LIMK1 (285 to 638 residues) expressed in baculovirus expression system using cofilin2 as substrate incubated for 1 hr by TR-FRET assay.
The target of experiment [1] is Tyrosine-protein kinase receptor TYRO3 (Homo sapiens, UniProt Q06418). Kind of experiment: Binding affinity to recombinant full-length N-terminal His-FLAG-GST-tagged TYRO3 (unknown origin) expressed in baculovirus infected Sf9 insect cells incubated for 1 hr by TR-FRET assay.
Experiment [2] deals with Serine/threonine-protein kinase 24 (Homo sapiens, UniProt Q9Y6E0). The experiment in a line: Binding affinity to recombinant full-length N-terminal His-FLAG-tagged STK24 (unknown origin) expressed in baculovirus infected Sf9 insect cells incubated for 1 hr by TR-FRET assay.
Experiment [3] addresses Serine/threonine-protein kinase DCLK3 (Homo sapiens, UniProt Q9C098). Kind of experiment: Binding affinity to recombinant full-length N-terminal His-FLAG-tagged DCLK3 (unknown origin) expressed in baculovirus infected Sf9 insect cells incubated for 1 hr by TR-FRET assay.
The target of experiment [4] is Calcium/calmodulin-dependent protein kinase type II subunit delta (Homo sapiens, UniProt Q13557). Kind of experiment: Binding affinity to recombinant human full-length N-terminal GST-tagged CAMK2D expressed in baculovirus expression system using GS peptide as substrate incubated for 1 hr by TR-FRET assay.
Experiment [5] deals with Platelet-derived growth factor receptor beta (Homo sapiens, UniProt P09619). Kind of experiment: Binding affinity to recombinant human N-terminal his-tagged PDGFRB (558 to 1106 residues) expressed in baculovirus expression system incubated for 1 hr by TR-FRET assay.
Experiment [6] addresses Tyrosine-protein kinase SYK (Homo sapiens, UniProt P43405). The experiment in a line: Binding affinity to recombinant human full-length N-terminal GST-tagged SYK expressed in baculovirus expression system using Blk/Lyntide as substrate incubated for 1 hr by TR-FRET assay.
Experiment [7] deals with Fibroblast growth factor receptor 2 (Homo sapiens, UniProt P21802). Kind of experiment: Binding affinity to recombinant N-terminal His-FLAG-GST-tagged FGFR2 (unknown origin) (399 to 821 residues) expressed in baculovirus infected Sf9 insect cells incubated for 1 hr by TR-FRET assay.
Experiment [8] concerns the target Serine/threonine-protein kinase 26 (Homo sapiens, UniProt Q9P289). Kind of experiment: Binding affinity to recombinant full-length N-terminal His-FLAG-tagged MST4 (unknown origin) expressed in baculovirus infected Sf9 insect cells incubated for 1 hr by TR-FRET assay.
The target of experiment [9] is Proto-oncogene tyrosine-protein kinase Src (Homo sapiens, UniProt P12931). The experiment in a line: Binding affinity to recombinant full-length N-terminal His-FLAG-GST-tagged SRC (unknown origin) expressed in baculovirus infected Sf9 insect cells incubated for 1 hr by TR-FRET assay.
Experiment [10] has as its target Mitogen-activated protein kinase kinase kinase 14 (Homo sapiens, UniProt Q99558). Kind of experiment: Binding affinity to recombinant N-terminal His-FLAG-GST-tagged MAP3K14 (unknown origin) (319 to 947 residues) expressed in baculovirus infected Sf9 insect cells incubated for 1 hr by TR-FRET assay.
The target in another experiment is Ephrin type-A receptor 7 (Homo sapiens, UniProt Q15375). Kind of experiment: Binding affinity to recombinant N-terminal His-FLAG-GST-tagged EPHA7 (unknown origin) ( 595 to 998 residues) expressed in baculovirus infected Sf9 insect cells incubated for 1 hr by TR-FRET assay.
Experiment [11] concerns the target Serine/threonine-protein kinase Sgk3 (Homo sapiens, UniProt Q96BR1). The experiment in a line: Binding affinity to recombinant full-length N-terminal His-FLAG-GST-tagged SGK3 (unknown origin) (119 to 496 residues) expressed in baculovirus infected Sf9 insect cells incubated for 1 hr by TR-FRET assay.
Experiment [12] has as its target Phosphorylase b kinase gamma catalytic chain, liver/testis isoform (Homo sapiens, UniProt P15735). The experiment in a line: Binding affinity to recombinant full-length N-terminal His-FLAG-GST-tagged PHKG2 (unknown origin) expressed in baculovirus infected Sf9 insect cells incubated for 1 hr by TR-FRET assay.
The target in experiment [13] is Tyrosine-protein kinase Lck (Homo sapiens, UniProt P06239). The experiment in a line: Binding affinity to recombinant human full length N-terminal GST-tagged LCK expressed in baculovirus expression system using srctide as substrate incubated for 1 hr by TR-FRET assay.
In experiment [14] the target is Citron Rho-interacting kinase (Homo sapiens, UniProt O14578). Kind of experiment: Binding affinity to recombinant full-length N-terminal His-FLAG-GST-tagged CIT (unknown origin) (1 to 449 residues) expressed in baculovirus infected Sf9 insect cells incubated for 1 hr by TR-FRET assay.
For experiment [15], the target named is Serine/threonine-protein kinase SIK2 (Homo sapiens, UniProt Q9H0K1). The experiment in a line: Binding affinity to recombinant full-length N-terminal His-FLAG-GST-tagged SIK2 (unknown origin) expressed in baculovirus infected Sf9 insect cells incubated for 1 hr by TR-FRET assay.
Experiment [16] concerns the target Serine/threonine-protein kinase 33 (Homo sapiens, UniProt Q9BYT3). The experiment in a line: Binding affinity to recombinant full-length N-terminal His-FLAG-GST-tagged STK33 (unknown origin) expressed in baculovirus infected Sf9 insect cells incubated for 1 hr by TR-FRET assay.
Experiment [17] concerns the target Rho-associated protein kinase 1 (Homo sapiens, UniProt Q13464). The experiment in a line: Binding affinity to recombinant full-length N-terminal His-FLAG-GST-tagged ROCK1 (unknown origin) (1 to 477 residues) expressed in baculovirus infected Sf9 insect cells incubated for 1 hr by TR-FRET assay.
The target in experiment [18] is Rho-associated protein kinase 2 (Homo sapiens, UniProt O75116). The experiment in a line: Binding affinity to recombinant full-length N-terminal His-FLAG-GST-tagged ROCK2 (unknown origin) (1 to 553 residues) expressed in baculovirus infected Sf9 insect cells incubated for 1 hr by TR-FRET assay.
Experiment [19] addresses Serine/threonine-protein kinase PLK4 (Homo sapiens, UniProt O00444). Kind of experiment: Binding affinity to recombinant full-length N-terminal His-FLAG-GST-tagged PLK4 (unknown origin) (1 to 836 residues) expressed in baculovirus infected Sf9 insect cells incubated for 1 hr by TR-FRET assay.
Experiment [20] has as its target Dual specificity mitogen-activated protein kinase kinase 6 (Homo sapiens, UniProt P52564). The experiment in a line: Binding affinity to recombinant human full length N-terminal GST-tagged MAP2K6 expressed in baculovirus expression system using p38alpha (9 to 352 residues) as substrate incubated for 1 hr by TR-FRET assay.
The target of experiment [21] is Serine/threonine-protein kinase TBK1 (Homo sapiens, UniProt Q9UHD2). Kind of experiment: Binding affinity to recombinant human full length N-terminal GST-tagged TBK1 expressed in baculovirus expression system using CKtide as substrate incubated for 1 hr by TR-FRET assay.

Sequence of Serine/threonine-protein kinase DCLK3 (Q9C098 whole entry): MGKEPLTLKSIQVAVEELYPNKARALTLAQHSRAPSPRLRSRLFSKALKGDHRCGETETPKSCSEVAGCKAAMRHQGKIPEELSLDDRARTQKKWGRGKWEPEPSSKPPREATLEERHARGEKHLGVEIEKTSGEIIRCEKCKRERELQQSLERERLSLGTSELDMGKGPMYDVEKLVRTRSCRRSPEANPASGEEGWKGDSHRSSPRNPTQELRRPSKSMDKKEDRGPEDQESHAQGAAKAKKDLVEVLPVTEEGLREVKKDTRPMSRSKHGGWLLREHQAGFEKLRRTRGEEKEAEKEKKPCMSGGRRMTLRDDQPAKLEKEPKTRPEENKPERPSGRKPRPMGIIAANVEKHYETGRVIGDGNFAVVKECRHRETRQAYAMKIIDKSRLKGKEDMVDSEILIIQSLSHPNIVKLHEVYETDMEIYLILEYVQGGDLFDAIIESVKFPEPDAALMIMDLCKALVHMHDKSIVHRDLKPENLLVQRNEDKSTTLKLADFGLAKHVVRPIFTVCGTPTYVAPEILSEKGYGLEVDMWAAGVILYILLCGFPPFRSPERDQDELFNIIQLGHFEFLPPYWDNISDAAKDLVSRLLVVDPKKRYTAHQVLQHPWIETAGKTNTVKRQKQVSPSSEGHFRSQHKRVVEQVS
Sequence of Citron Rho-interacting kinase (O14578 whole entry, the tested form may be a part): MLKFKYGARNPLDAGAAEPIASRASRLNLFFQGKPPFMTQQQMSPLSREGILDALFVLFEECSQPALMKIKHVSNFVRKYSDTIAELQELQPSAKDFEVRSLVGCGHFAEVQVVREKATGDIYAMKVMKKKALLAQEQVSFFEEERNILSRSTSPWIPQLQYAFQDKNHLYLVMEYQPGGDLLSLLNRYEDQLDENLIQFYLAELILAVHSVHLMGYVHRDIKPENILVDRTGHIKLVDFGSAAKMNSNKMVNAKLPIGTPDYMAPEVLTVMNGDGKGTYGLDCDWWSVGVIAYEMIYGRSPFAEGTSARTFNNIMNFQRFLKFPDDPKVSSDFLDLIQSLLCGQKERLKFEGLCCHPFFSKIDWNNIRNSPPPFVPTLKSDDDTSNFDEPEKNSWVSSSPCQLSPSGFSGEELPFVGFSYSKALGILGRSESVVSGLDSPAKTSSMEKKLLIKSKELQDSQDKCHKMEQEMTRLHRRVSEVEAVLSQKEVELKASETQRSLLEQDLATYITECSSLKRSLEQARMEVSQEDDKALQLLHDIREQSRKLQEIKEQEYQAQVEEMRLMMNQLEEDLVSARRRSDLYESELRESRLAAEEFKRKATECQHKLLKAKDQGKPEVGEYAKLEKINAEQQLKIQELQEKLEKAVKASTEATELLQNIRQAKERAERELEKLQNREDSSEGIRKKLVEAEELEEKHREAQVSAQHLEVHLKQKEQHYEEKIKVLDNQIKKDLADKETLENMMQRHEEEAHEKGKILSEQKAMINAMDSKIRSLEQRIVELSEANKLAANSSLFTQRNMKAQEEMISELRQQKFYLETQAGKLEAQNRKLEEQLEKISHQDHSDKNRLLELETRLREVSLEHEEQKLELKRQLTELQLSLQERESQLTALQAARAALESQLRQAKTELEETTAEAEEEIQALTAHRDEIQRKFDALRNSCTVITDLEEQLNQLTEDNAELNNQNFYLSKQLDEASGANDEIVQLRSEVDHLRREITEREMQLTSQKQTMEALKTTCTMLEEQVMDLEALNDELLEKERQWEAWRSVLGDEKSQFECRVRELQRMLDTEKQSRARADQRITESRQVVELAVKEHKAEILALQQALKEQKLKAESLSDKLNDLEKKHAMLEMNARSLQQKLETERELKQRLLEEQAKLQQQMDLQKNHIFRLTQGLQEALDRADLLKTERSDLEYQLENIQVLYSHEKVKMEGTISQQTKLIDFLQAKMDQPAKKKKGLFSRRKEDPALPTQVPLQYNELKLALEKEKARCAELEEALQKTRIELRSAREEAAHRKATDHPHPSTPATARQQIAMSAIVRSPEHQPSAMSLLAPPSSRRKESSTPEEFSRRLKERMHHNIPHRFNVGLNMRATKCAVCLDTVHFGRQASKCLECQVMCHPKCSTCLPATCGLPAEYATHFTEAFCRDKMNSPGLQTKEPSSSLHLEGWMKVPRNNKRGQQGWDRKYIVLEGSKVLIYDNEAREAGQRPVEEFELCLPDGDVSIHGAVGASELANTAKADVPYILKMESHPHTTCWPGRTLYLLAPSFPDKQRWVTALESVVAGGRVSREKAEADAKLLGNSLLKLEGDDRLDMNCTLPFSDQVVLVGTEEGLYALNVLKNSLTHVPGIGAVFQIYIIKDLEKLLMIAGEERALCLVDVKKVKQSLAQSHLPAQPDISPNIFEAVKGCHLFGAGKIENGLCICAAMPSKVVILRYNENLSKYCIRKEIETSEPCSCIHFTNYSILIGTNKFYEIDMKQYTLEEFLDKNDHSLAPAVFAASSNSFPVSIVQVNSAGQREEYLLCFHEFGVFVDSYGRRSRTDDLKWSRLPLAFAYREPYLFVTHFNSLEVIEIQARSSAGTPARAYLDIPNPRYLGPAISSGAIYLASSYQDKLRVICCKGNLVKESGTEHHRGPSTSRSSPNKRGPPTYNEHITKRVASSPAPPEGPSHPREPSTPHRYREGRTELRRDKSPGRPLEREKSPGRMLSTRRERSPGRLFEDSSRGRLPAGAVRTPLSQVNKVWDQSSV
Sequence of Phosphorylase b kinase gamma catalytic chain, liver/testis isoform (P15735 whole entry, canonical isoform): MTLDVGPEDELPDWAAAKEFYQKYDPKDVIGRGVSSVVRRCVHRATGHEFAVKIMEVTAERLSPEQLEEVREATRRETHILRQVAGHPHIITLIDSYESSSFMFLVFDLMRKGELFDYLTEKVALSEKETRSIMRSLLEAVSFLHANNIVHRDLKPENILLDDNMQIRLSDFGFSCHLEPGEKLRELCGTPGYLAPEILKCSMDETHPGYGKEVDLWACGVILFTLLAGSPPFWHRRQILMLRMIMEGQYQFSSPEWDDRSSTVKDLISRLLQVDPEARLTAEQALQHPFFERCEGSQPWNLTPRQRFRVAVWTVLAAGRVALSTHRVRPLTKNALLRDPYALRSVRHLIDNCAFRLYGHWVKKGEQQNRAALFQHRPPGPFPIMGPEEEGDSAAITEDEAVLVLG
Sequence of Proto-oncogene tyrosine-protein kinase Src (P12931 2-536 limits assumed): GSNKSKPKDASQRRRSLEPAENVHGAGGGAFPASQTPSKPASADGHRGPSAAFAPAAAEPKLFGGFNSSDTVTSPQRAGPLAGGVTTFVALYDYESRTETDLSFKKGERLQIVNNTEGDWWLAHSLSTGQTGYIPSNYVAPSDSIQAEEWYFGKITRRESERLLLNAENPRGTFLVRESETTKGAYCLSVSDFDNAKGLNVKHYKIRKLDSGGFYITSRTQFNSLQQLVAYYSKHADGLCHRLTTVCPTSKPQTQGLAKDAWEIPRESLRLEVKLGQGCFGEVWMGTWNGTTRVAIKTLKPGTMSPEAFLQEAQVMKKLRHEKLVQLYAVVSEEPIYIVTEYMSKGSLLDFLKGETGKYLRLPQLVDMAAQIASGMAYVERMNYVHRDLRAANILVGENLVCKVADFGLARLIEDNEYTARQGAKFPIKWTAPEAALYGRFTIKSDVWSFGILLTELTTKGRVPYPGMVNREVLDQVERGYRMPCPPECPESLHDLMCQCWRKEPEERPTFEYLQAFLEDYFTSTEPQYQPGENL
Sequence of Serine/threonine-protein kinase Sgk3 (Q96BR1 whole entry, the tested form may be a part, canonical isoform): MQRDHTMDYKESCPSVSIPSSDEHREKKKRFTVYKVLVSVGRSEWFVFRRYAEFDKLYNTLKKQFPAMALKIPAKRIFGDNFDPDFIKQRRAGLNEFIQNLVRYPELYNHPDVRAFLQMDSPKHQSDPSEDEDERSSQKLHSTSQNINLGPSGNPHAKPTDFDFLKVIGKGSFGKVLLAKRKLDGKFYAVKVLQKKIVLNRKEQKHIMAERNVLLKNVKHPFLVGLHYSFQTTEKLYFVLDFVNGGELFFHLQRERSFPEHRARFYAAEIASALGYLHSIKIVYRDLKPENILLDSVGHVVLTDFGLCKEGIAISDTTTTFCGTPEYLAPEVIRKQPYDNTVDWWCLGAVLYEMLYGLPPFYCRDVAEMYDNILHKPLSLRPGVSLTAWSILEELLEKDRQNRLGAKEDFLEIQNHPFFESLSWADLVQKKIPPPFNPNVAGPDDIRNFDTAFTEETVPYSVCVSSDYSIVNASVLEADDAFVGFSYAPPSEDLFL
Sequence of Mitogen-activated protein kinase kinase kinase 14 (Q99558 whole entry, the tested form may be a part): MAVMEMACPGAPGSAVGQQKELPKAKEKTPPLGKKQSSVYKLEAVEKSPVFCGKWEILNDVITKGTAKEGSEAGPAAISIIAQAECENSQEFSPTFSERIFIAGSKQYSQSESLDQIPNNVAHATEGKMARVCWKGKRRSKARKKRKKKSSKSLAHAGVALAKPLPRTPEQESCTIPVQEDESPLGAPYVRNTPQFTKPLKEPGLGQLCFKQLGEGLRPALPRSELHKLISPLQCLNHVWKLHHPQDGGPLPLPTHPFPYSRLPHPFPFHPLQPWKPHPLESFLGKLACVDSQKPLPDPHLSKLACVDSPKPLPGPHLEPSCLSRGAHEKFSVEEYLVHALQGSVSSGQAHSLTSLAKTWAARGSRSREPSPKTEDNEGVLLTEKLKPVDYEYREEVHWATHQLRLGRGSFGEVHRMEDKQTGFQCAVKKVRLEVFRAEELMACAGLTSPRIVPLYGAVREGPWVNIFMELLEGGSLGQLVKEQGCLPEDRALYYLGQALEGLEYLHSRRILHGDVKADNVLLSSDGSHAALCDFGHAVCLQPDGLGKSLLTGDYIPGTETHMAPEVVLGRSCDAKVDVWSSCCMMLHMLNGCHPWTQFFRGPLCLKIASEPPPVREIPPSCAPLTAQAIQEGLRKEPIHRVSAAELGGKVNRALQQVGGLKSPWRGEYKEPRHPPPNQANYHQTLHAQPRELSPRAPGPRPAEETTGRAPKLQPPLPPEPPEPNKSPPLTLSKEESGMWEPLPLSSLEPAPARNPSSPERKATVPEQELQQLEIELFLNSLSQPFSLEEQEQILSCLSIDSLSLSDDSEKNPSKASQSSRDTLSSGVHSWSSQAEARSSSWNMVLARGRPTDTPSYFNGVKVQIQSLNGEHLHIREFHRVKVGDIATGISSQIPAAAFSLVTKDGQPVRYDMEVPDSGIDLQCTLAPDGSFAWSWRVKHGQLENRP

In the case of `CO[C@@H]1[C@H](NCCOCCOCCOCCNC(=O)CCC2=[N+]3C(=Cc4c(C)cc(C)n4[B-]3(F)F)C=C2)C[C@H]2O[C@]1(C)n1c3ccccc3c3c4c(c5c6ccccc6n2c5c31)C(=O)NC4`, the Kd turned out to be 854 nM at TGF-beta receptor type-2; 6 nM on LIM domain kinase 1; 531 nM in experiment [1]; 436 nM in experiment [2]; 60 nM in [3]; 4 nM in [4]. Moreover, the dissociation constant Kd in experiment [5] stood at 165 nM; in [6] it was 26 nM; in [7] it was 242 nM; in experiment [8], 687 nM; in [9], 452 nM; in experiment [10], 352 nM. Also, the Kd at Ephrin type-A receptor 7 came to 766 nM; in experiment [11] it was 322 nM; in [12], 71 nM; in experiment [13], 94 nM; in experiment [14], 747 nM; in experiment [15] it was 4 nM. Moreover, the Kd in experiment [16] amounted to 8 nM; in [17] it was 35 nM; in [18] it was 23 nM; in experiment [19] it was 33 nM; in experiment [20] it was 28 nM; in experiment [21], 17 nM.

Regarding `CO[C@@H]1[C@H](N(C)CCOCCOCCOCCNC(=O)CCC2=[N+]3C(=Cc4c(C)cc(C)n4[B-]3(F)F)C=C2)C[C@H]2O[C@]1(C)n1c3ccccc3c3c4c(c5c6ccccc6n2c5c31)C(=O)NC4`, the Kd is greater than 2000 nM at TGF-beta receptor type-2; 32 nM at LIM domain kinase 1; 1050 nM in experiment [1]; 767 nM in experiment [2]; 104 nM in experiment [3]; 6 nM in experiment [4]. In addition, the equilibrium dissociation constant (Kd) in [5] was determined as 257 nM; in [6], 41 nM; in experiment [7], 361 nM; in experiment [8] it was 983 nM; in experiment [9] it was 572 nM; in experiment [10], 445 nM. Also, the dissociation constant Kd amounted to 887 nM at Ephrin type-A receptor 7; 338 nM in experiment [11]; 72 nM in experiment [12]; 92 nM in [13]; 710 nM in experiment [14]; 3 nM in [15]. The dissociation constant Kd is 6 nM in [16]; 26 nM in experiment [17]; 16 nM in [18]; 20 nM in experiment [19]; 16 nM in experiment [20]; 9 nM in [21].

By Kd is commonly meant the free concentration of one partner at which half of the binding sites on the other are occupied at equilibrium, for simple one-to-one binding.
